Experiments:
Conditions in all cases: 48 h
[1] = system: NOMO1; assay: cell viability relative to DMSO control; higher = less cytotoxic
Procedure, shortened: (§1)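 Viability, reported as a per-plate percentage of DMSO wells with cell-free wells as background, came from CellTiter-Glo One luminescence. Reading took place after 48 h at 37°C. Before that, NOMO1 or SEM (500 cells/well) or P12-Ichikawa (1000 cells/well) leukemia cells, adapted for at least four passages in each medium, were seeded in 1536-well plates (5 μl) and pin-dosed with library compounds in DMSO, 47 μM to 0.79 nM over 11 threefold points.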

[2] = system: P12-Ichikawa; assay: as above
Procedure, shortened: as §1

[3] = system: SEM cells; assay: as above
Procedure, shortened: as §1

[4] = system: NOMO1; assay: AUC of viability dose-response curve (% viability x log10 dose units); higher = less sensitive
Procedure, shortened: (§2)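 Seeding of medium-adapted leukemia cells was at 500 or 1000 cells/well in 1536-well plates, followed by 48 h at 37°C with library compounds in DMSO at 11 threefold doses from 47 μM to 0.79 nM. CellTiter-Glo One luminescence was normalised per plate to DMSO and cell-free wells and fitted as a four-parameter log-logistic function of log10 dose. Area under the curve was integrated by trapezoidal rule, with curves exceeding full viability scaled and curves failing quality control removed.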

[5] = system: P12-Ichikawa; assay: as above
Procedure, shortened: as §2

[6] = system: SEM cells; assay: as above
Procedure, shortened: as §2

CNCC(O)C(O)C(O)C(O)CO.O=C(O)c1ccc(-c2cc3cccnc3c(-c3ccc4nonc4c3)n2)cc1
cell viability [%]
Conditions | [1] | [2] | [3]
HPLM + 10% dialyzed FBS, 0.000781 µM | 105 | 105 | 104
HPLM + 10% dialyzed FBS, 0.00234 µM | 110 | 112 | 103
HPLM + 10% dialyzed FBS, 0.00702 µM | 115 | 115 | 99.1
HPLM + 10% dialyzed FBS, 0.0211 µM | 111 | 106 | 115
HPLM + 10% dialyzed FBS, 0.0632 µM | 121 | 119 | 114
HPLM + 10% dialyzed FBS, 0.19 µM | 126 | 116 | 115
HPLM + 10% dialyzed FBS, 0.569 µM | 112 | 120 | 114
HPLM + 10% dialyzed FBS, 1.71 µM | 122 | 119 | 131
HPLM + 10% dialyzed FBS, 5.12 µM | 112 | 112 | 112
HPLM + 10% dialyzed FBS, 15.4 µM | 110 | 117 | 92.7
HPLM + 10% dialyzed FBS, 46.1 µM | 76.7 | 99.4 | 92
RPMI 5 mM glucose + 10% FBS, 0.000781 µM | 118 | 113 | 100
RPMI 5 mM glucose + 10% FBS, 0.00234 µM | 119 | 107 | 107
RPMI 5 mM glucose + 10% FBS, 0.00702 µM | 119 | 122 | 109
RPMI 5 mM glucose + 10% FBS, 0.0211 µM | 118 | 107 | 108
RPMI 5 mM glucose + 10% FBS, 0.0632 µM | 115 | 123 | 115
RPMI 5 mM glucose + 10% FBS, 0.19 µM | 112 | 127 | 108
RPMI 5 mM glucose + 10% FBS, 0.569 µM | 125 | 122 | 115
RPMI 5 mM glucose + 10% FBS, 1.71 µM | 106 | 116 | 111
RPMI 5 mM glucose + 10% FBS, 5.12 µM | 117 | 121 | 103
RPMI 5 mM glucose + 10% FBS, 15.4 µM | 119 | 109 | 108
RPMI 5 mM glucose + 10% FBS, 46.1 µM | 102 | 102 | 88.8
RPMI 5 mM glucose + 10% dialyzed FBS, 0.000781 µM | 99 | 104 | 98
RPMI 5 mM glucose + 10% dialyzed FBS, 0.00234 µM | 105 | 114 | 97.6
RPMI 5 mM glucose + 10% dialyzed FBS, 0.00702 µM | 124 | 111 | 120
RPMI 5 mM glucose + 10% dialyzed FBS, 0.0211 µM | 120 | 104 | 103
RPMI 5 mM glucose + 10% dialyzed FBS, 0.0632 µM | 114 | 115 | 108
RPMI 5 mM glucose + 10% dialyzed FBS, 0.19 µM | 111 | 114 | 101
RPMI 5 mM glucose + 10% dialyzed FBS, 0.569 µM | 127 | 119 | 112
RPMI 5 mM glucose + 10% dialyzed FBS, 1.71 µM | 111 | 120 | 103
RPMI 5 mM glucose + 10% dialyzed FBS, 5.12 µM | 111 | 113 | 127
RPMI 5 mM glucose + 10% dialyzed FBS, 15.4 µM | 118 | 104 | 87.6
RPMI 5 mM glucose + 10% dialyzed FBS, 46.1 µM | 74.4 | 89.4 | 65.8

AUC of viability dose-response curve
Conditions | [4] | [5] | [6]
HPLM + 10% dialyzed FBS | 467 | 473 | 472
RPMI 5 mM glucose + 10% FBS | 464 | 470 | 472
RPMI 5 mM glucose + 10% dialyzed FBS | 469 | 468 | 459

— the supplement of paper PMC11451515
